# What was measured:
# [1] = biological target: human TRPV1 receptor channel (Homo sapiens, UniProt Q8NER1); test: Two-electrode voltage clamp of capsaicin-induced current in Xenopus oocytes expressing wild type human TRPV1; format: cell-based; settings: for inhibition of capsaicin-induced current: 100 μM gomisin A plus 1 μM capsaicin, voltage ramp
# control oocytes = test: Two-electrode voltage clamp of control oocytes injected with H2O; format: cell-based, X. laevis; settings: for inward peak current in control oocytes: oocytes injected with 40 nl H2O
# TRPV1 A452Y mutant = TRPV1 A452Y mutant (Homo sapiens, UniProt Q8NER1, A453Y); format: cell-based; settings: holding potential −80 mV
# TRPV1 Y453A mutant = TRPV1 Y453A mutant (Homo sapiens, UniProt Q8NER1, Y454A, species not given); format: cell-based; settings: holding potential −80 mV
# TRPV1 Y454A mutant = TRPV1 Y454A mutant (Homo sapiens, UniProt Q8NER1, Y455A); format: cell-based; settings: holding potential −80 mV
# TRPV1 R455A mutant = TRPV1 R455A mutant (Homo sapiens, UniProt Q8NER1, R456A, species not given); format: cell-based; settings: holding potential −80 mV
# TRPV1 V456A mutant = TRPV1 V456A mutant (Homo sapiens, UniProt Q8NER1, V456A, species not given); format: cell-based; settings: holding potential −80 mV
# TRPV1 L465A mutant = TRPV1 L465A mutant (Homo sapiens, UniProt Q8NER1, form not given, species not given); format: cell-based; settings: holding potential −80 mV
# TRPV1 K466A mutant = TRPV1 K466A mutant (Homo sapiens, UniProt Q8NER1, form not given, species not given); format: cell-based; settings: holding potential −80 mV
# TRPV1 N467A mutant = TRPV1 N467A mutant (Homo sapiens, UniProt Q8NER1, form not given, species not given); format: cell-based; settings: holding potential −80 mV
# TRPV1 T468A mutant = TRPV1 T468A mutant (Homo sapiens, UniProt Q8NER1, T469A, species not given); format: cell-based; settings: holding potential −80 mV
# TRPV1 V469A mutant = TRPV1 V469A mutant (Homo sapiens, UniProt Q8NER1, form not given, species not given); format: cell-based; settings: holding potential −80 mV
# TRPV1 YNA2 double mutant = TRPV1 YNA2 double mutant (Homo sapiens, UniProt Q8NER1, Y454A, form not given, species not given); format: cell-based; settings: holding potential −80 mV
# TRPV1 YNA2 double mutant, sequence (Q8NER1 whole entry Y454A, form open): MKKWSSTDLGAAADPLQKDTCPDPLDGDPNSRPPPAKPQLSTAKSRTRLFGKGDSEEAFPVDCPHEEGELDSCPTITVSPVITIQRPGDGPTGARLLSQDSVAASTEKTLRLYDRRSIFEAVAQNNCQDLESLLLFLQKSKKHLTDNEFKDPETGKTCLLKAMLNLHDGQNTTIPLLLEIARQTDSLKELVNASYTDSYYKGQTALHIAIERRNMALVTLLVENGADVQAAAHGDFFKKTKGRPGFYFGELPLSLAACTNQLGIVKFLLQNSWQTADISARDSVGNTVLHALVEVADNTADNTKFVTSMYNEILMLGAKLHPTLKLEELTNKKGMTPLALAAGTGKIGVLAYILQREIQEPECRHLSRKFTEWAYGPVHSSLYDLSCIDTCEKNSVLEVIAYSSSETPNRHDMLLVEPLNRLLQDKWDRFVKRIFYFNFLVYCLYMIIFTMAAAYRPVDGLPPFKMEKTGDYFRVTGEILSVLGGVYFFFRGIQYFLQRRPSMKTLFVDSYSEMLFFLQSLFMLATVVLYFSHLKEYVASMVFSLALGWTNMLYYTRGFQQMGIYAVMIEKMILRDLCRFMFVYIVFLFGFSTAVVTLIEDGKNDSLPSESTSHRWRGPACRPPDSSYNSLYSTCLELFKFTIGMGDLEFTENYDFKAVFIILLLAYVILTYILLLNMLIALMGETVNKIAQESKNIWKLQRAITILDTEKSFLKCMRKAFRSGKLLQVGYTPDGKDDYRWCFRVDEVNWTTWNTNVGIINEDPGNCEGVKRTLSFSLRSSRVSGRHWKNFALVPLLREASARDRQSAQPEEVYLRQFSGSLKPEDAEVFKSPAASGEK
# human TRPV1 receptor channel, sequence (Q8NER1 whole entry): as the sequence (Q8NER1 whole entry Y454A, form open) above, with A454Y counted along it
# TRPV1 T468A mutant, sequence (Q8NER1 whole entry T469A): as the sequence (Q8NER1 whole entry Y454A, form open) above, with A454Y, T469A counted along it
# TRPV1 R455A mutant, sequence (Q8NER1 whole entry R456A): as the sequence (Q8NER1 whole entry Y454A, form open) above, with A454Y, R456A counted along it
# TRPV1 Y454A mutant, sequence (Q8NER1 whole entry Y455A): as the sequence (Q8NER1 whole entry Y454A, form open) above, with A454Y, Y455A counted along it
# TRPV1 V456A mutant, sequence (Q8NER1 1-837 isoform Q8NER1-3 V456A): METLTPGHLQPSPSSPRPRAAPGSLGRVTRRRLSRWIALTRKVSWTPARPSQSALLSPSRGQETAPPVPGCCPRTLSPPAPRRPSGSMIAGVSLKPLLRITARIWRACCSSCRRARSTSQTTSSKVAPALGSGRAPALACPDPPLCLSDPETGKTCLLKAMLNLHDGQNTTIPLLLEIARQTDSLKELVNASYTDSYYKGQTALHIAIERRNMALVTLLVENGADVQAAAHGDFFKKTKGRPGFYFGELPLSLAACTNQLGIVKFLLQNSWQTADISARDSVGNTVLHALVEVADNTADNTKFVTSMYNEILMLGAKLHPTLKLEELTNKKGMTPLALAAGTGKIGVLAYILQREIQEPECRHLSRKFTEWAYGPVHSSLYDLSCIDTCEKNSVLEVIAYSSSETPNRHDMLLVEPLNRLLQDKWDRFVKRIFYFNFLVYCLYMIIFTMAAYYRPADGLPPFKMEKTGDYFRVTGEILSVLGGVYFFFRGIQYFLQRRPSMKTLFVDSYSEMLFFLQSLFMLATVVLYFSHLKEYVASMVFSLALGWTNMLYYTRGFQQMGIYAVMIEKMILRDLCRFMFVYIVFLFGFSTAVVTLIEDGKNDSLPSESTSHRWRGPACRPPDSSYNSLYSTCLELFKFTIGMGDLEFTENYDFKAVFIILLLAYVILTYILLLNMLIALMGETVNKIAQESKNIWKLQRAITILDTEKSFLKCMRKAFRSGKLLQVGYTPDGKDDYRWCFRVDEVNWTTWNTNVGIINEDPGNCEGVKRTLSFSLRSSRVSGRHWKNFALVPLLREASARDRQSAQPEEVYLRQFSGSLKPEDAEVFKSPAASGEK
# TRPV1 K466A mutant, sequence (Q8NER1 1-837 isoform Q8NER1-3, stated change not applied): as the sequence (Q8NER1 1-837 isoform Q8NER1-3 V456A) above, with A456V counted along it
# TRPV1 Y453A mutant, sequence (Q8NER1 whole entry Y454A): as the sequence (Q8NER1 whole entry Y454A, form open) above
# TRPV1 A452Y mutant, sequence (Q8NER1 whole entry A453Y): as the sequence (Q8NER1 whole entry Y454A, form open) above, with A453Y, A454Y counted along it
# TRPV1 V469A mutant, sequence (Q8NER1 whole entry, stated change not applied): as the sequence (Q8NER1 whole entry Y454A, form open) above, with A454Y counted along it
# TRPV1 L465A mutant, sequence (Q8NER1 whole entry, stated change not applied): as the sequence (Q8NER1 whole entry Y454A, form open) above, with A454Y counted along it
# TRPV1 N467A mutant, sequence (Q8NER1 whole entry, stated change not applied): as the sequence (Q8NER1 whole entry Y454A, form open) above, with A454Y counted along it
compound,measurement,setting,value
"COc1cc(CNC(=O)CCCC/C=C/C(C)C)ccc1O [capsaicin, reference compound]",reversal membrane voltage potential of capsaicin-induced inward current,"[1]; 1 μM capsaicin, ramp −100 to +80 mV",~−10 mV
same,effect of agonist on current,"[1]; 1 μM, holding potential −80 mV",stimulated an inward current
same,inward peak current in control oocytes,control oocytes; 1 μM,did not result in any inward peak current
"Oc1cc2c(cc1O)CN(C(=S)NCCc1ccc(Cl)cc1)CCC2 [capsazepine, reference compound]",effect of antagonist on capsaicin-stimulated inward current,[1]; 10 μM capsazepine cotreated with 1 μM capsaicin,blocked the capsaicin-stimulated inward current
same,inhibition at 10 µM,"[1]; 10 μM capsazepine cotreated with 1 μM capsaicin, −80 mV, read-out: percent inhibition of capsaicin-induced inward current",79.5 ± 4.5%
gomisin A,effect of compound alone on currents of human TRPV1 receptor,"[1]; 100 μM alone, holding potential −80 mV",had no effect
same,percent inhibition of capsaicin-induced inward current,"[1]; 100 μM gomisin A coapplied with 1 μM capsaicin, −80 mV",46.5 ± 4.5%
same,inhibition of capsaicin-induced current,[1]; at +80 mV,42.6 ± 11.2%
same,inhibition of capsaicin-induced current,[1]; at −100 mV,71.1 ± 16.2%
same,Vmax,"[1]; […], inhibition of capsaicin-induced current, holding potential −80 mV",72.9 ± 1.0
same,manner of attenuation of capsaicin-elicited inward peak currents,[1]; cotreatment with capsaicin,"reversible, voltage insensitive, concentration dependent, and noncompetitive"
same,percent inhibition of capsaicin-induced inward current,"[1]; preapplication of gomisin A, 1 μM capsaicin",48.2 ± 7.2%
same,Vmax,TRPV1 A452Y mutant,79.2 ± 3.1
same,n (Hill coefficient),TRPV1 A452Y mutant,2.2 ± 0.8
same,Vmax,TRPV1 Y453A mutant,38.3 ± 2.4
same,n (Hill coefficient),TRPV1 Y453A mutant,1.2 ± 0.5
same,Vmax,TRPV1 Y454A mutant,59.2 ± 3.0
same,n (Hill coefficient),TRPV1 Y454A mutant,2.2 ± 0.8
same,Vmax,TRPV1 R455A mutant,64.4 ± 2.6
same,n (Hill coefficient),TRPV1 R455A mutant,1.7 ± 0.6
same,Vmax,TRPV1 V456A mutant,91.5 ± 2.6
same,n (Hill coefficient),TRPV1 V456A mutant,1.8 ± 0.8
same,Vmax,TRPV1 L465A mutant,68.3 ± 3.5
same,n (Hill coefficient),TRPV1 L465A mutant,1.8 ± 0.3
same,Vmax,TRPV1 K466A mutant,64.7 ± 2.1
same,n (Hill coefficient),TRPV1 K466A mutant,2.3 ± 0.5
same,Vmax,TRPV1 N467A mutant,24.7 ± 2.0
same,n (Hill coefficient),TRPV1 N467A mutant,1.3 ± 0.5
same,Vmax,TRPV1 T468A mutant,67.9 ± 1.5
same,n (Hill coefficient),TRPV1 T468A mutant,1.6 ± 0.5
same,Vmax,TRPV1 V469A mutant,72.5 ± 5.6
same,n (Hill coefficient),TRPV1 V469A mutant,2.1 ± 0.7
same,Vmax,TRPV1 YNA2 double mutant,17.9 ± 6.5
same,inward current in control oocytes on coapplication,"control oocytes; 10 μM gomisin A coapplied with 1 μM capsaicin, H2O-injected oocytes",did not result in an inward current
same,inward peak current in control oocytes,control oocytes; 10 μM,did not result in any inward peak current

# Reference: PMC5684552 (Evidence-based Complementary and Alternative Medicine : eCAM, 2017)
